Measured values reported in US10551384B2, “MTOR kinase mutations and methods of use thereof” (RUTGERS, THE STATE UNIVERSITY OF NEW JERSEY, priority 2016, dated 2020).
“Also recorded” adds a separate entry of the source. Where two headings read alike, the source gives them in different places.

How the values were obtained:
[1] = system: mTORC1 and mTORC2 signaling in SW480 mTOR(L2185A) cells; assay: mTORC1/mTORC2 signaling immunoblot in SW480 cells carrying L2185A mutant mTOR; assay type: cell-based, human; details: various concentrations, 1 hr, immunoblot of P-S6K, P-4E-BP1, P-AKT
Experimental: (§1) (FIG. 5A) SW480 cells carrying homozygous WT mTOR or L2185A mutant alleles were treated with various concentrations of AZD8055, INK-128, OSI-027 and PP242 for 2 day. Growth of SW480 cells was measured by SRB assay. Data represent means±SD in three independent experiments. (FIG. 5B) SW480 cells carrying homozygous WT and L2185A mutant mTOR allele were treated with a single dose of AZD8055 (100 nM), INK-128 (100 nM), OSI-027 (6,000 nM), and PP242 (2,000 nM) for different times. Cell growth was measured by SRB assay. The drug carrier DMSO was used as a control. Data represent means±SD in three independent experiments. (FIG. 5C) SW480 cells carrying homozygous WT and L2185A mutant mTOR were treated with various concentrations of INK-128, OSI-027, AZD8055 and PP242 for 1 hr. The effect on the level of P-S6K, S6K, P-4E-BP1, 4EB-P1, P-AKT and AKT was analyzed by immunoblot. […] The growth of SW480 cells was measured by SRB assay. Data represent means±SD in three independent experiments.
(§2) Antibodies against tubulin, S6K, phospho-S6K (Thr389), 4E-BP1, phospho-4E-BP1 (Thr37/46), Akt, phospho-Akt (Thr308), and phospho-Akt (Ser473) were purchased from Cell Signaling Technology. […] For drug sensitivity test, cancer cells were seeded in 96-well plates at a density of 2,000 cells per well. 24 hours later, different concentrations of mTOR inhibitors were added in quadruplicate. Cell growth was measured by the sulforhodamine B (SRB) assay as previously described (Vichai, V., and Kirtikara, K. (2006). Nature protocols 1, 1112-1116).

[2] = system: SW480 colorectal cancer cells carrying L2185A mutant mTOR alleles; assay: SRB growth assay of SW480 cells carrying L2185A mutant mTOR; assay type: cell-based, human; details: various concentrations, 2 day
Experimental: as §1
Cancer cell lines were maintained in DMEM or RPMI 1640, supplemented with 10% fetal bovine serum (Invitrogen) and 1% penicillin/streptomycin (Invitrogen). CRISPR/cas9 technology was used to engineer mutant mTOR allele in SW480 colorectal and H460 lung cancer cells. Briefly, The target sequence for mTOR, […] (SEQ ID NO: 3 was designed through the online tool at crispr.mit.edu, and cloned into pSPCas9(BB)-2A-GFP vector (PX458 in Addgene). Genomic mTOR mutation was engineered using a protocol as described (Ran, et al. (2013). Nature protocols 8, 2281-2308) and was confirmed by targeted sequencing.
as §2

[3] = target: T1, tor2-dg cells expressing TOR2-mTOR (UniProt P32600+P42345, A1929L/A1944S/A1986S/A2056E/A2073S/C1999R/C2085L/C2133A/D1912T/D1918E/D1933G/D1947H/D2096N/DUP2140-2140/E1921Q/E2000I/E2014H/E2032D/E2033D/E2049A/E2059K/E2080D/G1897S/G1954S/G2046K/G2092K/H1915G/H1958L/H1988Q/H2028Y/H2055Y/H2106N/I1939L/I1957L/I1964L/I1973V/I2021V/K1928N/K1993S/K1996E/K2045E/K2066R/K2087N/K2095S/L1923M/L1952I/L1956S/L1995I/L2037Q/L2103I/M2010E/M2011L/M2026Q/M2058L/M2079N/M2089K/M2132S/N1898S/N1899S/N1920T/N1989K/N1992L/N1997K/N2003P/N2071Q/N2093D/P1951Q/Q1937E/Q1959S/Q2007D/Q2063E/Q2072N/Q2082Y/R1890H/R1896E/R1950N/R1966K/R2042H/R2086M/R2110K/R2134H/S1980I/S2112G/S2120T/T1903A/T1948Q/T1962S/T1977M/T1983E/T1984S/T1985L/T2004V/T2068I/T2098N/T2119Q/V1906L/V1919A/V1924H/V1927F/V2019M/V2044T/V2050A/W1916I/Y1913F/Y1967A/Y2038F/Y2074F/Y2125H); assay: Disc halo assay of tor2-dg cells expressing TOR2-mTOR, with or without antifungal permeability enhancers; assay type: cell-based, S. cerevisiae; details: filter discs supplemented with amphotericin B (10 μM), miconazole (50 μM) or caspofungin (50 μM); 37° C., 3 day
T1 construct: fused in frame with mTOR kinase domain (2140-2549 aa); yeast TOR2 N-terminus (1-2080 aa); expressed in transfected cells; host or cells: S. cerevisiae W303 tor2-dg, centromeric plasmid derived from pML40-TOR2
T1 sequence (P32600+P42345 fused with the stated changes): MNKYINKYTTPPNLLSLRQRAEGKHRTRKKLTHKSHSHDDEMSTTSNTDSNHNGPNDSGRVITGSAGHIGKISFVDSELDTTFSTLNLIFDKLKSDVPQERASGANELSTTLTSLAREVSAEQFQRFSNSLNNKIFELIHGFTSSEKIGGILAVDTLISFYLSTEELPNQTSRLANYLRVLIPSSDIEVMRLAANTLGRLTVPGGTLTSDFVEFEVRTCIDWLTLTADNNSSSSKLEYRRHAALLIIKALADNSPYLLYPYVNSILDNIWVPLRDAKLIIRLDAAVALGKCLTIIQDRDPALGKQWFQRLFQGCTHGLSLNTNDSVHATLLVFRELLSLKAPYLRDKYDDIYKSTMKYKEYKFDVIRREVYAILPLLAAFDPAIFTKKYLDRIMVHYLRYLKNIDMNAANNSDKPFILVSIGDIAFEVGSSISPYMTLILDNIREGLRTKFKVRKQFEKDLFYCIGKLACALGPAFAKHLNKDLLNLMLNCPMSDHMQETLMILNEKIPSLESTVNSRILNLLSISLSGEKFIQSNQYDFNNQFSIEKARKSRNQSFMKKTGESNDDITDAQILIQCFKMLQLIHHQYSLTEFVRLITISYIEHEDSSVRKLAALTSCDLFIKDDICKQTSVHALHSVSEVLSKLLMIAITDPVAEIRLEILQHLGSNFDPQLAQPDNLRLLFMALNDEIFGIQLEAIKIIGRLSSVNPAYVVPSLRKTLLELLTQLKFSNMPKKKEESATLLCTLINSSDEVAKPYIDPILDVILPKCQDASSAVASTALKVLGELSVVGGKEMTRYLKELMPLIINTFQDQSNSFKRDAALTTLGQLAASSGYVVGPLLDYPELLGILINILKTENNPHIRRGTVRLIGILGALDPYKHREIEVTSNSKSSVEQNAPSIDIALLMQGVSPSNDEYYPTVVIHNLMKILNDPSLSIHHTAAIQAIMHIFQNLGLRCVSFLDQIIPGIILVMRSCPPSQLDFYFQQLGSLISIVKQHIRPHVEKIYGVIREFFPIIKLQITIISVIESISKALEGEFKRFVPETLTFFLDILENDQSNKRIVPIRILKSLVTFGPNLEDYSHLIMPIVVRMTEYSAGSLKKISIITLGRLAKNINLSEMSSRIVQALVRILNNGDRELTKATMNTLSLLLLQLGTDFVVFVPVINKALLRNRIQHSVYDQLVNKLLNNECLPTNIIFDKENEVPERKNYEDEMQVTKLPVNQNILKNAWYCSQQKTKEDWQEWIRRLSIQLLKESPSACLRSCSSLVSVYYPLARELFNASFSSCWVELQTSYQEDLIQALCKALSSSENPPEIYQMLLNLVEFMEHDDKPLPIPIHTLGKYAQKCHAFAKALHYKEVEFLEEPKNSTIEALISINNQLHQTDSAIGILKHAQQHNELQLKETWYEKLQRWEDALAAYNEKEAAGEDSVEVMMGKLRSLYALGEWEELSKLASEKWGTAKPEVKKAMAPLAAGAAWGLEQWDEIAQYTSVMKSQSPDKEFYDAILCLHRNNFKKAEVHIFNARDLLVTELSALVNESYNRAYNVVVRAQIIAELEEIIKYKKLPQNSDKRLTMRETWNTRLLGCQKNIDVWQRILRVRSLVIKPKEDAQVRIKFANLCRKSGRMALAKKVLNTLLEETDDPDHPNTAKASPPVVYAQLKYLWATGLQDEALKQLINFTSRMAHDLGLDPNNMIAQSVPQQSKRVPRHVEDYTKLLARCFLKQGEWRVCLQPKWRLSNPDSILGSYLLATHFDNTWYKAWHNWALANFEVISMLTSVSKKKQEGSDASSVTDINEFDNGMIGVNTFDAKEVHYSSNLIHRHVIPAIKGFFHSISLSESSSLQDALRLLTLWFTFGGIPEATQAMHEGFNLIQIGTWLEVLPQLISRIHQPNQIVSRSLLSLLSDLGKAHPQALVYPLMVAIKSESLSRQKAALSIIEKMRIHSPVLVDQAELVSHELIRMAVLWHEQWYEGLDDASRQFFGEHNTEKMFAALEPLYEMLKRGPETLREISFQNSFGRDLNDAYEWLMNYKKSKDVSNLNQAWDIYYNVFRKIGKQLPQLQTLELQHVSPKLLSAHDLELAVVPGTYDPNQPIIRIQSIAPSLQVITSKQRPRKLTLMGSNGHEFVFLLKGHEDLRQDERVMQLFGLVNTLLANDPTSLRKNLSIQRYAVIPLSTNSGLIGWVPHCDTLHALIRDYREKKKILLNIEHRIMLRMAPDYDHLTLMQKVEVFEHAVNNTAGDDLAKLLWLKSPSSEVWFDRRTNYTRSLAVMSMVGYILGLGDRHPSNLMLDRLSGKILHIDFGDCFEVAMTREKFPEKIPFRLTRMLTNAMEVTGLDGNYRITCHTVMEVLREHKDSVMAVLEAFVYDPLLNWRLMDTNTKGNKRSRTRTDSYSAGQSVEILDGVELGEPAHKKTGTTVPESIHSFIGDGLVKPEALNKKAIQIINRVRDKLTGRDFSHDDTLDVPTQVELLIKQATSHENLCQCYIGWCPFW
T1 sequence (P41318 whole entry partner): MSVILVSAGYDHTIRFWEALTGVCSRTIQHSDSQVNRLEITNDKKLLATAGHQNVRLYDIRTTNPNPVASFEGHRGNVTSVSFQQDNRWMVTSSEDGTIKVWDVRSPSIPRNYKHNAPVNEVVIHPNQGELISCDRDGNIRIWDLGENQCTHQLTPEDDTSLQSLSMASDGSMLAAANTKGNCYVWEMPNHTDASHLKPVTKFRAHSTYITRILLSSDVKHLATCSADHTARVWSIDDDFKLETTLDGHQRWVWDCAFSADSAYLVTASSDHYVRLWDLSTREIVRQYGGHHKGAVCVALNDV
Experimental: FIGS. 2A-C. Enhancement of yeast cell permeability to structurally diverse mTOR kinase inhibitors by amphotericin B. (FIG. 2A) tor2-dg cells expressing TOR2-mTOR were spread on synthetic complete (SC)-leucine plate and tested for drug sensitivity by disc halo assay using filter discs containing different mTOR kinase inhibitors supplemented with the drug carrier DMSO or amphotericin B (10 μM). (FIG. 2B) Similar to FIG. 2A except the filter discs were supplemented with miconazole (50 μM). (FIG. 2C) Similar to FIG. 2A except the filter discs were supplemented with caspofungin (50 μM).
(§3) To enhance yeast cell permeability, log phase W303 tort-dg cells were spread evenly on SD-Leu agarose plates. After drying, small sterile filter discs were placed on the surface and 5 μl of indicated mTOR inhibitors or DMSO were applied to each disc with or without adding 5 μl of amphotericin B (10 μM), miconazole (50 μM) or caspofungin (50 μM). Plates were incubated at 37° C. for 3 day. Drug resistance profiles of TOR2-mTOR mutant cells were determined by the spotting assay. For this assay, 10-fold serial dilutions of cells were spotted on SD-leu plates in the presence of indicated mTOR inhibitors with or without amphotericin B (200 nM) and incubated at 37° C. for 3 day.

TOR2-mTOR L2185G mutant = assay: Yeast spotting assay for drug resistance, TOR2-mTOR L2185G; assay type: cell-based, S. cerevisiae; details: 37° C., with amphotericin B
Excerpt: (§4) FIGS. 4A-C. […] (FIG. 4A) Scheme of a yeast-based screen for drug-resistant mutations in mTOR kinase domain. mTOR kinase domain is amplified by error-prone PCR to generate randomized mutations, which is then recombined in frame into the TOR2-mTOR plasmid by gap-repair in tort-dg cells, and is selected on SC-leucine minus plates. Replica plating is then made onto SC-leucine plates containing DMSO or mTOR kinase inhibitor for selection of drug resistant clones. (FIG. 4B) tor2-dg cells expressing WT or mutant TOR2-mTOR were serially diluted by 10-fold and assayed for sensitivity to different mTOR kinase inhibitors in the presence of amphotericin B. Vector and TOR2 were used as controls. Drug resistant assay was performed at 37° C. in the presence of amphotericin B (except OSI-027). (FIG. 4C) Systematic mutational analysis of L2185 on drug resistance. tort-dg cells expressing WT or mutant TOR2-mTOR carrying all possible mutations at L2185 were serially diluted by 10-fold and tested for sensitivity to different mTOR kinase inhibitors at 37° C.
as §3

TOR2-mTOR L2185A mutant = assay: Yeast spotting assay for drug resistance, TOR2-mTOR L2185A; assay type: cell-based, S. cerevisiae
Excerpt: as §4, §3

TOR2-mTOR L2185D mutant = assay: Yeast spotting assay for drug resistance, TOR2-mTOR L2185D; assay type: cell-based, S. cerevisiae; details: 37° C., with amphotericin B
Excerpt: as §4, §3

TOR2-mTOR L2185C mutant = assay: Yeast spotting assay for drug resistance, TOR2-mTOR L2185C; assay type: cell-based, S. cerevisiae
Excerpt: as §4, §3

TOR2-mTOR L2185N mutant = assay: Yeast spotting assay for drug resistance, TOR2-mTOR L2185N; assay type: cell-based, S. cerevisiae; details: 37° C., with amphotericin B
Excerpt: as §4, §3

[4] = 37° C., amphotericin B present (except OSI-027)

| Compound | drug resistance/sensitivity of cell growth, SW480 L2185A vs WT [2] | effect of antifungal drug on yeast sensitivity to mTOR kinase inhibitors [3] | drug resistance of TOR2-mTOR L2185G mutant yeast (TOR2-mTOR L2185G mutant) | drug resistance of TOR2-mTOR L2185D mutant yeast (TOR2-mTOR L2185D mutant) | drug resistance of TOR2-mTOR L2185N mutant yeast (TOR2-mTOR L2185N mutant) | further results |
| --- | --- | --- | --- | --- | --- | --- |
| CC(C)n1nc(-c2cc3cc(O)ccc3[nH]2)c2c(N)ncnc21 [PP242] | confers resistance | – | – | – | – | drug resistance of mTORC1 and mTORC2 signaling, SW480 L2185A vs WT [1]: drug-resistant signaling by both mTORC1 and mTORC2 |
| C[C@@H]1[C@H](O)[C@@H](C)/C=C/C=C/C=C/C=C/C=C/C=C/C=C/[C@H](O[C@@H]2O[C@H](C)[C@@H](O)[C@H](N)[C@@H]2O)C[C@@H]2O[C@](O)(C[C@@H](O)C[C@@H](O)[C@H](O)CC[C@@H](O)C[C@@H](O)CC(=O)O[C@H]1C)C[C@H](O)[C@H]2C(=O)O [Amphotericin B] | – | increases yeast sensitivity to most of mTOR kinase inhibitors | – | – | – | – |
| COc1ccc(-c2cc3c(C)nc(N)nc3n([C@H]3CC[C@H](OCCO)CC3)c2=O)cn1 [PF-04691502] | still sensitive | – | moderately resistant | moderately resistant | moderately resistant | drug resistance/sensitivity of TOR2-mTOR L2185A mutant yeast (TOR2-mTOR L2185A mutant; [4]): confers resistance; also recorded: conferring resistance; drug resistance/sensitivity of TOR2-mTOR L2185C mutant yeast (TOR2-mTOR L2185C mutant; [4]): confer resistance; also recorded: conferring resistance |
| CC[C@H](C)C[C@H](C)CCCCCCCCC(=O)N[C@H]1C[C@@H](O)[C@@H](NCCN)NC(=O)[C@@H]2[C@@H](O)CCN2C(=O)[C@H]([C@H](O)CCN)NC(=O)[C@H]([C@H](O)[C@@H](O)c2ccc(O)cc2)NC(=O)[C@@H]2C[C@@H](O)CN2C(=O)[C@H]([C@@H](C)O)NC1=O [caspofungin] | – | fail to do so | – | – | – | – |
| COc1ccc(-c2ccc3c(N4CCOC[C@@H]4C)nc(N4CCOC[C@@H]4C)nc3n2)cc1CO [AZD8055] | confers resistance | – | moderately resistant | moderately resistant | moderately resistant | drug resistance of mTORC1 and mTORC2 signaling, SW480 L2185A vs WT [1]: drug-resistant signaling by both mTORC1 and mTORC2; drug resistance/sensitivity of TOR2-mTOR L2185A mutant yeast (TOR2-mTOR L2185A mutant; [4]): confer resistance; also recorded: conferring resistance; drug resistance/sensitivity of TOR2-mTOR L2185C mutant yeast (TOR2-mTOR L2185C mutant; [4]): confer resistance; also recorded: conferring resistance |
| CN(C)C1CCN(C(=O)c2ccc(NC(=O)Nc3ccc(-c4nc(N5CCOCC5)nc(N5CCOCC5)n4)cc3)cc2)CC1 [PKI-587] | – | – | moderately resistant | moderately resistant | moderately resistant | drug resistance/sensitivity of TOR2-mTOR L2185A mutant yeast (TOR2-mTOR L2185A mutant): conferring resistance; drug resistance/sensitivity of TOR2-mTOR L2185C mutant yeast (TOR2-mTOR L2185C mutant): conferring resistance |
| Clc1ccc(COC(Cn2ccnc2)c2ccc(Cl)cc2Cl)c(Cl)c1 (centres unmarked) [miconazole] | – | fail to do so | – | – | – | – |
